Reference: patent publication US8215314B2, “Photochemical tissue bonding” (The General Hospital Corporation, priority 2000, dated 2012)

Test system: bovine tendon / NeuraGen collagen conduit interface
Experiment: Tensile strength of PTB bond between NeuraGen conduit and bovine tendon
Conditions: RB dye, 532 nm, fluence of 150-300 Joules, 0.25 cm^2 interface
Description: Additional experiments were also performed to determine the effectiveness of PTB bonding between the NeuraGen™ conduits and an animal tissue, namely bovine tendon tissue. To do this, the tensile strength of a PTB bond formed between the bovine tendon and a segment of Neuregen™ conduit was tested, using various different photoactive dyes. Both the tendon surface and the inner surface of a piece of conduit were coated with RB dye and allowed to sit in the dark for 60 seconds. The two surfaces were then thoroughly dried and pressed together to form a tendon/conduit interface of approximately 0.25 cm^2. The construct was irradiated at 532 nm through the conduit toward the tendon/conduit interface at various fluence levels (Joules). Constructs were then pulled into tension using a tensiometer until the bond between the tendon and the conduit broke. The breaking force was measured in Newtons.

O=C([O-])c1c(Cl)c(Cl)c(Cl)c(Cl)c1-c1c2cc(I)c(=O)c(I)c-2oc2c(I)c([O-])c(I)cc12.[Na+].[Na+] [Rose Bengal]
bond between tendon and conduit (breaking force): effective bond was formed
